Experimental data: patent publication US8906868B2, “Aminoglycoside derivatives” (Rempex Pharmaceuticals, Inc., priority 2010, dated 2014)
In brackets after ≈: the same amount, converted by molar mass. Read-outs that look alike come from different tables or passages of the source.

How the values were obtained:
ECM6006 aph(3′)-III = assay: microbe, parasite or virus in culture; type: cell-based, Escherichia coli; conditions: Escherichia coli, read-out: Compound MIC on Bacterial Strains: ECM6006 aph(3′)-III
How it was run: (§1)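 MICs came from optical density at 600 nm after 18 hours at 35° C, with visual confirmation. Compounds were serially diluted 2-fold in cation-adjusted Mueller Hinton broth and inoculated at 5×10^5 CFU/ml following CLSI guidelines.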

ECM6009 aac(3)-II = assay: microbe, parasite or virus in culture; type: cell-based, Escherichia coli; conditions: Escherichia coli, read-out: Compound MIC on Bacterial Strains: ECM6009 aac(3)-II
How it was run: as §1

ECM6010 ant(2″)-I = assay: microbe, parasite or virus in culture; type: cell-based, Escherichia coli; conditions: Escherichia coli, read-out: Compound MIC on Bacterial Strains: ECM6010 ant(2″)-I
How it was run: as §1

ECM6011 aph(3′)-I = assay: microbe, parasite or virus in culture; type: cell-based, Escherichia coli; conditions: Escherichia coli, read-out: Compound MIC on Bacterial Strains: ECM6011 aph(3′)-I
How it was run: as §1

ECM6003 rmtB = assay: microbe, parasite or virus in culture; type: cell-based, Escherichia coli; conditions: Escherichia coli; Table 3; read-out: Compound MIC on Bacterial Strains: ECM6003 rmtB
How it was run: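 Broth microdilution per CLSI M7-A7 in cation-adjusted Mueller Hinton broth with 2-fold serial dilutions and 5×10^5 CFU/ml inoculum. Incubated 18 hours at 35 °C; MIC read by turbidity at 600 nm and confirmed visually.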

EC1002 aph(3′)-IV = assay: organism not typed; type: cell-based; conditions: read-out: Compound MIC on Bacterial Strains: EC1002 aph(3′)-IV
How it was run: as §1

EC1001 acc(6′)-Ib = assay: microbe, parasite or virus in culture; type: cell-based, Escherichia coli; conditions: Escherichia coli; Table 4; read-out: Compound MIC on Bacterial Strains: Escherichia coli EC1001 acc(6′)-Ib
How it was run: (§2)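 MICs came from well turbidity at 600 nm, checked by eye, after 18 hours at 35° C. Bacteria at a final 5×10^5 CFU/ml were exposed to 2-fold dilution series in cation-adjusted Mueller Hinton broth following CLSI methods.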

[1] = tested on: ECM6007 aac(6′) + aph(2″); assay: microbe, parasite or virus in culture; type: cell-based, Escherichia coli; conditions: Escherichia coli, 18 h; Table 4; read-out: Compound MIC on Bacterial Strains: Escherichia coli ECM6007 aac(6′) + aph(2″)
How it was run: as §2

ACM1005 ATCC 19004 = assay: MIC, broth microdilution; type: cell-based, Acinetobacter baumannii; conditions: Acinetobacter baumannii, ATCC19004; Table 4; read-out: Compound MIC on Bacterial Strains: Acinetobacter baumannii ACM1005 ATCC 19004
How it was run: as §2

ACM1006 acc(6′)-Ib = assay: microbe, parasite or virus in culture; type: cell-based, Acinetobacter baumannii; conditions: Acinetobacter baumannii; Table 4; read-out: Compound MIC on Bacterial Strains: Acinetobacter baumannii ACM1006 acc(6′)-Ib
How it was run: as §2

PAM3072 aac(6′)-II = assay: microbe, parasite or virus in culture; type: cell-based, Pseudomonas aeruginosa; conditions: Pseudomonas aeruginosa, Table 5; read-out: Compound MIC on Bacterial Strains: Pseudomonas aeruginosa PAM3072 aac(6′)-II
How it was run: as §2

PAM3073 aac(6′)-I = assay: microbe, parasite or virus in culture; type: cell-based, Pseudomonas aeruginosa; conditions: Pseudomonas aeruginosa, Table 5; read-out: Compound MIC on Bacterial Strains: Pseudomonas aeruginosa PAM3073 aac(6′)-I
How it was run: as §2

Sa 287 aac(6′) + aph(2″) = assay: microbe, parasite or virus in culture; type: cell-based, Staphylococcus aureus; conditions: Staphylococcus aureus, 18 h; Table 5; read-out: Compound MIC on Bacterial Strains: Staphylococcus aureus Sa 287 aac(6′) + aph(2″)
How it was run: as §2

[2] = tested on: Escherichia coli (ATCC 25922); assay: MIC, broth microdilution; conditions: Escherichia coli
[3] = tested on: Staphylococcus aureus (ATCC 29213); assay: MIC, broth microdilution; conditions: Staphylococcus aureus
[4] = tested on: Klebsiella pneumonia (ATCC 43816); assay: MIC, broth microdilution; conditions: Klebsiella pneumoniae, ATCC43816, read-out: Compound MIC on Bacterial Strains: K. pneumonia ATCC 43816
[5] = tested on: Pseudomonas aeruginosa (ATCC 27853); assay: MIC, broth microdilution; conditions: Pseudomonas aeruginosa
[6] = tested on: Acinetobacter baumannii (ATCC 19606); assay: MIC, broth microdilution; conditions: Acinetobacter baumannii, ATCC19606, read-out: Compound MIC on Bacterial Strains: A. baumannii ATCC 19606
rats = assay: Nephrotoxicity of test compounds in rats; conditions: once daily subcutaneous
[7] = ATCC25922, read-out: Compound MIC on Bacterial Strains: E. coli ATCC 25922
[8] = ATCC25922, read-out: Compound MIC on Bacterial Strains: ECM6000 ATCC 25922
[9] = ATCC25922, read-out: Compound MIC on Bacterial Strains: Escherichia coli ECM6000 ATCC 25922
[10] = ATCC29213, read-out: Compound MIC on Bacterial Strains: S. aureus ATCC 29213, QC strain, Table 2
[11] = ATCC29213, read-out: Compound MIC on Bacterial Strains: Staphylococcus aureus SAM1000 ATCC 29213, Table 5
[12] = ATCC27853, read-out: Compound MIC on Bacterial Strains: P. aeruginosa ATCC 27853
[13] = ATCC27853, read-out: Compound MIC on Bacterial Strains: Pseudomonas aeruginosa PAM3034 ATCC 27853

| Structure (SMILES) | MIC (ECM6006 aph(3′)-III) | MIC (ECM6009 aac(3)-II) | MIC (ECM6010 ant(2″)-I) | MIC (ECM6011 aph(3′)-I) | MIC (ECM6003 rmtB) | MIC (EC1002 aph(3′)-IV) | MIC (EC1001 acc(6′)-Ib) | MIC [1] | MIC (ACM1005 ATCC 19004) | MIC (ACM1006 acc(6′)-Ib) | MIC (PAM3072 aac(6′)-II) | MIC (PAM3073 aac(6′)-I) | MIC (Sa 287 aac(6′) + aph(2″)) | MIC [2, 7] | MIC [2, 8] | MIC [2, 9] | MIC [3, 10] | MIC [3, 11] | MIC [4] | MIC [5, 12] | also measured |
| --- | --- | --- | --- | --- | --- | --- | --- | --- | --- | --- | --- | --- | --- | --- | --- | --- | --- | --- | --- | --- | --- |
| CN[C@@H]1[C@@H](O)[C@@H](O[C@@H]2[C@@H](O)[C@H](O[C@H]3O[C@H](CNCCO)CC[C@H]3N)[C@@H](N)C[C@H]2NC(=O)[C@@H](O)CN)OC[C@]1(C)O [Compound 2, (S)-3-amino-N-((1R,2S,3S,4R,5S)-5-amino-4-((2R,3R,6S)-3-amino-6-((2-hydroxyethylamino)methyl)tetrahydro-2H-pyran-2-yloxy)-2-((2R,3R,4R,5R)-3,5-dihydroxy-5-methyl-4-(methylamino)tetrahydro-2H-pyran-2-yloxy)-3-hydroxycyclohexyl)-2-hydroxypropanamide] | < 1 µg/mL | < 1 µg/mL | < 1 µg/mL | < 1 µg/mL | > 8 µg/mL | 1 to 8 µg/mL (≈ 1.72 to 13.8 µM) | < 1 µg/mL | < 1 µg/mL | 1 to 8 µg/mL (≈ 1.72 to 13.8 µM) | 1 to 8 µg/mL (≈ 1.72 to 13.8 µM) | > 8 µg/mL | 1 to 8 µg/mL (≈ 1.72 to 13.8 µM) | < 1 µg/mL | < 1 µg/mL | < 1 µg/mL | < 1 µg/mL | < 1 µg/mL | < 1 µg/mL | < 1 µg/mL | 1 to 8 µg/mL (≈ 1.72 to 13.8 µM) | MIC [5, 13]: 1 to 8 µg/mL (≈ 1.72 to 13.8 µM); MIC [6]: > 8 µg/mL; Histopathology Results After 7 days of Dosing (rats; 10 mg/kg/day): Minimal Tubular Eosinophilia;; Histopathology Results After 14 days of Dosing (rats; 10 mg/kg/day): No change; Histopathology Results After 7 days of Dosing (rats; 30 mg/kg/day): Minimal Tubular Eosinophilia;; Histopathology Results After 14 days of Dosing (rats; 30 mg/kg/day): Minimal to Mild Dilatation; Histopathology Results After 7 days of Dosing (rats; 100 mg/kg/day): Mild Tubular Eosinophila; Histopathology Results After 14 days of Dosing (rats; 100 mg/kg/day): No Deaths; Moderate to Severe |
| CN[C@@H]1[C@@H](O)[C@@H](O[C@@H]2[C@@H](O)[C@H](O[C@H]3O[C@H](CNCCO)CC[C@H]3N)[C@@H](N)C[C@H]2NC(=O)[C@@H](O)CCN)OC[C@]1(C)O [Compound 1, (2S)-4-amino-N-((1R,2S,3S,4R,5S)-5-amino-4-((2R,3R,6S)-3-amino-6-((2-hydroxyethylamino)methyl)tetrahydro-2H-pyran-2-yloxy)-2-((2R,3R,5R)-3,5-dihydroxy-5-methyl-4-(methylamino)tetrahydro-2H-pyran-2-yloxy)-3-hydroxycyclohexyl)-2-hydroxybutanamide] | 1 to 8 µg/mL (≈ 1.68 to 13.5 µM) | < 1 µg/mL | < 1 µg/mL | < 1 µg/mL | > 8 µg/mL | < 1 µg/mL | < 1 µg/mL | < 1 µg/mL | < 1 µg/mL | < 1 µg/mL | > 8 µg/mL | 1 to 8 µg/mL (≈ 1.68 to 13.5 µM) | 1 to 8 µg/mL | < 1 µg/mL | < 1 µg/mL | < 1 µg/mL | < 1 µg/mL | < 1 µg/mL | < 1 µg/mL | 1 to 8 µg/mL (≈ 1.68 to 13.5 µM) | MIC [5, 13]: 1 to 8 µg/mL (≈ 1.68 to 13.5 µM); MIC [6]: > 8 µg/mL; Histopathology Results After 7 days of Dosing (rats; 10 mg/kg/day): No Change; Histopathology Results After 14 days of Dosing (rats; 10 mg/kg/day): No Change; Histopathology Results After 7 days of Dosing (rats; 30 mg/kg/day): Mild Nephrosis; Histopathology Results After 14 days of Dosing (rats; 30 mg/kg/day): Moderate to Severe Nephrosis; Histopathology Results After 7 days of Dosing (rats; 100 mg/kg/day): Severe Nephrosis; Histopathology Results After 14 days of Dosing (rats; 100 mg/kg/day): 4/4 Died |
